This is an account of results in PMC7760477 (Nutrients, 2020).

One data set in a line: clinical. As to conditions: both, human, in vivo.
Details of data set [1]: method as in Pietrzik et al., 2000 unpublished data. As to conditions: single equimolar dose; 23 women; mean (SD); ref Pietrzik et al., 2000 unpublished data; cited from earlier work.
Data set [2] is described as follows: Pharmacokinetic study (present, 2019): plasma (6S)-5-Methyl-THF by UPLC-MS/MS after a single oral dose.
Experimental: Both folate compounds were provided in odorless gelatin capsules of identical appearance (Apotheke Roter Ochsen AG, Schaffhausen, Switzerland). The label carried a random ID number and the kinetic day 1 and day 2.
The randomization was carried out on kinetic day 1 by means of consecutive numbering and was stratified by sex. On the kinetic days, a permanent venous catheter was inserted in the morning. Blood (8 mL) was collected under fasting conditions (at t0) into EDTA-K^+-containing tubes. […] The study product (1 capsule) was administered with 150 mL water by the study personnel to ensure compliance. A folate-free protein drink (Scandishake® Mix, Nutricia GmbH, Erlangen, Germany) was dissolved in water and served at 1 h, 3 h and 6 h after the product intake. The drink provided 430 kcal per serving. On each kinetic day, 9 blood samples were collected between t0 and t8 h (8 mL each). […]
Plasma total folate levels were measured on the kinetic days by using Cobas autoanalyser (Elecsys®, Roche, Mannheim, Germany) at the Department of Clinical Chemistry, Saarland University Hospital, Germany. […] All plasma samples collected from the same subject (18 samples on both study visits) were prepared and measured in the same run. […]
Incremental areas under the observed concentration-time curve above baseline were calculated applying the trapezoidal rule and were expressed as nmol/L*h.
A short description of data set [3]: Pharmacokinetic study (present, 2019): plasma unmetabolized folic acid by UPLC-MS/MS after a single oral dose. As to conditions: over 8 h; limit of detection 0.20 nmol/L.
Experimental: (§1) The label carried a random ID number and the kinetic day 1 and day 2.
(§2) The randomization was carried out on kinetic day 1 by means of consecutive numbering and was stratified by sex. On the kinetic days, a permanent venous catheter was inserted in the morning. Blood (8 mL) was collected under fasting conditions (at t0) into EDTA-K^+-containing tubes. […] The study product (1 capsule) was administered with 150 mL water by the study personnel to ensure compliance. A folate-free protein drink (Scandishake® Mix, Nutricia GmbH, Erlangen, Germany) was dissolved in water and served at 1 h, 3 h and 6 h after the product intake. The drink provided 430 kcal per serving. On each kinetic day, 9 blood samples were collected between t0 and t8 h (8 mL each). The diary records including documentation of adverse events were returned during the last blood collection session after 8 h of the intake. After a washout period of 2 weeks (only two participants returned at 11 and 17 days) and during the second study visit (kinetic day 2), the other study compound was administered following exactly the same procedure.
(§3) Plasma total folate levels were measured on the kinetic days by using Cobas autoanalyser (Elecsys®, Roche, Mannheim, Germany) at the Department of Clinical Chemistry, Saarland University Hospital, Germany. The CV% of the total folate assay was <6%. All plasma samples collected from the same subject (18 samples on both study visits) were prepared and measured in the same run. All blood samples were primary aliquots frozen at −70 °C for no longer than 3 months.
The conditions of data set [4]: rated as unrelated to the study product.
Experimental: On the kinetic days, a permanent venous catheter was inserted in the morning. Blood (8 mL) was collected under fasting conditions (at t0) into EDTA-K^+-containing tubes. […] The study product (1 capsule) was administered with 150 mL water by the study personnel to ensure compliance. […] On each kinetic day, 9 blood samples were collected between t0 and t8 h (8 mL each). The diary records including documentation of adverse events were returned during the last blood collection session after 8 h of the intake.
A short description of data set [5]: 2009 pharmacokinetic study (Prinz-Langenohl et al.): plasma (6S)-5-Methyl-THF by LC-MS-MS after a single oral dose in women. The note with it: AUC0-8h of plasma (6S)-5-Methyl-THF; individual ratios; mean (SD).
Experimental: Plasma concentrations of (6S)-5-Methyl-THF were selectively measured in both studies.
(§4) We used individual data from the two studies to calculate the AUC0–8 h of plasma (6S)-5-Methyl-THF. […] We extrapolated plasma concentrations of (6S)-5-Methyl-THF for the missing time points in the corresponding studies by calculating the mean of the concentrations at the two neighboring time points (=before and after the missing concentrations). […] The incremental AUCs of plasma (6S)-5-Methyl-THF were calculated and were expressed as nmol/L*h.
The data analyses were conducted using individual data from the 24 subjects in the present pharmacokinetic study and 21 women (3 women were excluded due to implausible results) from the study of Prinz-Langenohl et al. [13].
Data set [6] is described as follows: Indirect comparison of AUCs of plasma (6S)-5-Methyl-THF between the 2019 and 2009 studies. The note with it: female, human, in vivo, 451 µg.
Experimental: as §4

Structures are written as SMILES. Entries after “also recorded” stand apart in the source; their conditions may differ.

Experimental for clinical: as §1, §2, §3

The Tmax is the time from dosing to the highest level. Turning to `Nc1nc2ncc(CNc3ccc(C(=O)N[C@@H](CCC(=O)O)C(=O)O)cc3)nc2c(=O)[nH]1` [folic acid, pteroylmonoglutamic acid], in “clinical”, the concentration at 0.5 h was determined as 2.5 nM and the concentration at 1 h worked out at 4.7 nM. The time of peak concentration (Tmax) in “clinical” (po) is 30 to 60 min. In addition, the “Incremental AUC0–8 h of plasma total folate” value in data set [1] is on record as 50.3 (20.1) nmol/L*h.

Consider `CN1c2c(nc(N)[nH]c2=O)NC[C@@H]1CNc1ccc(C(=O)N[C@@H](CCC(=O)O)C(=O)O)cc1` [(6S)-5-Methyl-THF-Na, (6S)-5-Methyltetrahydrofolic acid], for which, in data set [2] (AUC0-8h of plasma (6S)-5-Methyl-THF, individual ratios, mean (SD)), the “AUC Ratio: AUCs of (6S)-5-Methyl-THF-Na/ AUC folic acid 2019” value is 2.52 (1.02). Besides, the “Maximum concentrations of plasma (6S)-5-Methyl-THF reached earlier compared to folic acid” value in data set [2] (difference of Tmax versus folic acid) turned out to be 60 min. In addition, in data set [3], the “Plasma unmetabolized folic acid levels after intake” value was “below the limit of detection; also recorded: remained undetectable”. Further, in data set [4], the “Headaches reported on kinetic day 1 after intake” value is “Three subjects reported headaches”.

Broadly, the AUC(0-t) is exposure summed from dosing to a finite time, without extrapolation to infinity. A lower AUC(0-t) goes with less exposure. Consider `CN1c2c(nc(N)[nH]c2=O)NC[C@@H]1CNc1ccc(C(=O)N[C@@H](CCC(=O)O)C(=O)O)cc1` [(6S)-5-Methyl-THF-Ca, (6S)-5-Methyltetrahydrofolic acid], for which, in data set [1], the “Incremental AUC0–8 h of plasma total folate” value is 85.0 (21.9) nmol/L*h. Also, the “AUC Ratio: AUCs (6S)-5-Methyl-THF-Ca/ folic acid 2009” value in data set [5] was 2.29 (0.76). The AUC(0-t) in data set [6] turned out to be 0.136 µM·h.
